target: T1, human 5-HT7 receptor (Homo sapiens, UniProt P34969); test: 5-HT7 Receptor Binding Assay; conditions: membranes of CHO cells expressing human 5-HT7 receptor; 1 nM 3H-5-carboxamidotryptamine; 25° C., 60 minutes
T1 construct: expressed in transfected cells; host or cells: CHO cells
Description: 5-HT7 Receptor Binding Assay
Membranes are prepared for binding using the human 5-HT7 receptor expressed in CHO cells. Cells are collected and ruptured using a dounce homogenizer. The cells are spun at 18000× g for 10 minutes and the pellet is resuspended in assay buffer, frozen in liquid nitrogen and kept at −80° C. until the day of the assay.
A total of 30 ug protein is used per well. The assay is carried out in 96-deep-well plates. The assay buffer is 50 mM HEPES. The membrane preparation is incubated at 25° C. for 60 minutes with 0.1 nM to 1000 nM test compound and 1 nM ^3H-5-carboxamidotryptamine. 10 uM serotonin is used as blocking agent to determine non-specific binding. The reaction is terminated by the addition of 1 ml of ice cold 5OmM HEPES buffer and rapid filtration through a Brandel Cell Harvester using Whatman GF/B filters. The filter pads are counted in an LKB Trilux liquid scintillation counter. IC50 values are determined using non-linear regression by Exel-fit.

T1 sequence (P34969 whole entry): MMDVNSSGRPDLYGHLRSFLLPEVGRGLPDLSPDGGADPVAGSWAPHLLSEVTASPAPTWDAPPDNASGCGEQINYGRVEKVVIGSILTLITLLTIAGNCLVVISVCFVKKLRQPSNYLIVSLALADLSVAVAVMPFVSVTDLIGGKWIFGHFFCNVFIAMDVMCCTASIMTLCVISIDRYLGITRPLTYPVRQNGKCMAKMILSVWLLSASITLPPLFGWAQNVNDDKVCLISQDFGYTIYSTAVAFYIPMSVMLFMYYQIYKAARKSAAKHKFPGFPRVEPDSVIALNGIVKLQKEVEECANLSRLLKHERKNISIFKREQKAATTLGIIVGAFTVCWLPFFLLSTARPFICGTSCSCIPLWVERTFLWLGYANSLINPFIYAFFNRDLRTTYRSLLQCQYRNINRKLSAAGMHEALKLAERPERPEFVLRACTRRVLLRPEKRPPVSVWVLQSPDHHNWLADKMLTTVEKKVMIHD

| IC50 [nM] | SMILES |
| --- | --- |
| 51 to 100 | C[C@H](Nc1nc(N)nc(NCCC2=CCCCC2)n1)c1ccccc1 [Compound 57, N^2-[2-(1-Cyclohexenyl)ethyl]-N^4-[(1S)-1-phenylethyl]-1,3,5-triazine-2,4,6-triamine] |
| ≤ 50 | FC(F)(F)c1cccc(CNc2ccnc(NCCc3ccccc3)n2)c1 [N^2-(2-Phenylethyl)-N^4-[3-(trifluoromethyl)phenylmethyl]pyrimidine-2,4-diamine] |
| ≤ 50 | CC(Nc1ccnc(NCCc2ccccc2)n1)c1ccc(Cl)cc1 (stereo not shown) [N^4-[1-(4-Chlorophenyl)ethyl]-N^2-(2-phenylethyl)pyrimidine-2,4-diamine] |
| ≤ 50 | CC(Nc1ccnc(N(C)CCc2c[nH]c3ccccc23)n1)c1ccccc1 (stereo not shown) [Compound 30, N^2-[2(1H-Indol-3-yl)ethyl]-N^2-(methyl)-N^4-(1-phenylethyl)pyrimidine-2,4-diamine] |
| 51 to 100 | COc1ccc(CCNc2nc(C)cc(N[C@@H](C)c3ccccc3)n2)cc1Br [N^2-[2-(3-Bromo-4-methoxyphenyl)ethyl]-6-methyl-N^4-[(1S)-1-phenylethyl]pyrimidine-2,4-diamine] |
| 51 to 100 | CC(Nc1ccnc(NCCc2ccc(Cl)c(Cl)c2)n1)c1ccccc1 (stereo not shown) [N^2-[2-(3,4-Dichlorophenyl)ethyl]-N^4-(1-phenylethyl)pyrimidine-2,4-diamine] |
| ≤ 50 | CC(Nc1ccnc(NCCc2cccc(F)c2)n1)c1ccccc1 (stereo not shown) [N^2-[2-(3-Fluorophenyl)ethyl]-N^4-(1-phenylethyl)pyrimidine-2,4-diamine] |
| ≤ 50 | C[C@H](Nc1nc(N)nc(NCCc2ccccc2)n1)c1ccccc1 [Compound 60, N^2-[(1S)-1-Phenylethyl]-N^4-(2-phenylethyl)-1,3,5-triazine-2,4,6-triamine] |
| 51 to 100 | CC(Nc1ccnc(NCCc2cccc(Br)c2)n1)c1ccccc1 (stereo not shown) [Compound 8, N^2-[2-(3-Bromophenyl)ethyl]-N^4-(1-phenylethyl)pyrimidine-2,4-diamine] |
| 51 to 100 | C[C@H](Nc1nc(N)nc(NCCOc2ccc(F)c(F)c2)n1)c1ccc([N+](=O)[O-])cc1 [Compound 47, N^2-[2-(3,4-Difluorophenoxy)ethyl]-N^4-[(1S)-1-(4-nitrophenyl)ethyl]-1,3,5-triazine-2,4,6-triamine] |
| ≤ 50 | C[C@H](Nc1ccnc(NCCc2ccccc2)n1)c1cccc2ccccc12 [Compound 24, N^4-[(1S)-1-(1-Napthalenyl)ethyl]-N^2-(2-phenylethyl)pyrimidine-2,4-diamine] |
| ≤ 50 | c1ccc(OCCNc2nccc(NCc3cccc4ccccc34)n2)cc1 [Compound 16, N^4-(1-Napthalenylmethyl)-N^2-(2-phenoxyethyl)pyrimidine-2,4-diamine] |
| ≤ 50 | C[C@H](Nc1nc(N)nc(NCCc2cccc(Br)c2)n1)c1ccccc1 [Compound 66, N^2-[2-(3-Bromophenyl)ethyl]-N^4-[(1S)-1-phenylethyl]-1,3,5-triazine-2,4,6-triamine] |
| ≤ 50 | CC[C@H](Nc1nc(N)nc(NCCc2cccc(Cl)c2)n1)c1ccccc1 [Compound 69, N^2-[2-(3-Chlorophenyl)ethyl]-N^4-[(1S)-1-phenylpropyl]-1,3,5-triazine-2,4,6-triamine] |
| ≤ 50 | C[C@H](Nc1ccnc(NCCOc2ccccc2)n1)c1ccc(Br)cc1 [Compound 13, N^4-[(1S)-1-(4-Bromophenyl)ethyl]-N^2-(2-phenoxyethyl)pyrimidine-2,4-diamine] |
| 101 to 200 | Cc1ccc(CCNc2nc(N)nc(N[C@@H](C)c3ccc(Br)cc3)n2)cc1 [Compound 34, N^2-[(1S)-1-(4-Bromophenyl)ethyl]-N^4-[2-(4-methylphenyl)ethyl]-1,3,5-triazine-2,4,6-triamine] |
| ≤ 50 | Fc1ccc(CNc2ccnc(NCCOc3ccccc3)n2)cc1Cl [N^4-(3-Chloro-4-fluorophenylmethyl)-N^2-(2-phenoxyethyl)pyrimidine-2,4-diamine] |
| ≤ 50 | Cc1ccc(CCNc2nccc(NC(C)c3ccccc3)n2)cc1 (stereo not shown) [N^2-[2-(4-Methylphenyl)ethyl]-N^4-(1-phenylethyl)pyrimidine-2,4-diamine] |
| 51 to 100 | CC(Nc1ccnc(NCCc2ccc(Cl)cc2)n1)c1ccccc1 (stereo not shown) [N^2-[2-(4-Chlorophenyl)ethyl]-N^4-(1-phenylethyl)pyrimidine-2,4-diamine] |
| ≤ 50 | C[C@H](Nc1nc(N)nc(NCCc2ccc(N)cc2)n1)c1ccc([N+](=O)[O-])cc1 [Compound 78, N^2-[2-(4-Aminophenyl)ethyl]-N^4-[(1S)-1-(4-nitrophenyl)ethyl]-1,3,5-triazine-2,4,6-triamine] |
| ≤ 50 | CC[C@H](Nc1nc(N)nc(NCCc2cccc(F)c2)n1)c1ccccc1 [Compound 63, N^2-[2-(3-Fluorophenyl)ethyl]-N^4-[(1S)-1-phenylpropyl]-1,3,5-triazine-2,4,6-triamine] |
| 51 to 100 | CC(CNc1nccc(NC(C)c2ccccc2)n1)c1ccccc1 (stereo not shown) [N^4-(1-Phenylethyl)-N^2-(2-phenylpropyl)pyrimidine-2,4-diamine] |

| IC50 [nM] | SMILES |
| --- | --- |
| 51 to 100 | CC(Nc1ccnc(NCCc2cccc(C(F)(F)F)c2)n1)c1ccccc1 (stereo not shown) [N^4-(1-Phenylethyl)-N^2-{2-[3-(trifluoromethyl)phenyl]ethyl}pyrimidine-2,4-diamine] |
| 101 to 200 | CC[C@H](Nc1nc(N)nc(NCCc2ccc(Cl)cc2)n1)c1ccccc1 [Compound 32, N^2-[2-(4-Chlorophenyl)ethyl]-N^4-[(1S)-1-phenylpropyl]-1,3,5-triazine-2,4,6-triamine] |
| 51 to 100 | C[C@H](Nc1nc(N)nc(NCCOc2ccc(F)cc2)n1)c1ccc([N+](=O)[O-])cc1 [Compound 45, N^2-[2-(4-Fluorophenoxy)ethyl]-N^4-[(1S)-1-(4-nitrophenyl)ethyl]-1,3,5-triazine-2,4,6-triamine] |
| 101 to 200 | COc1cc(CNc2ccnc(NCCOc3ccccc3)n2)cc(OC)c1 [N^4-(3,5-Dimethoxyphenylmethyl)-N^2-(2-phenoxyethyl)pyrimidine-2,4-diamine] |
| ≤ 50 | Cc1ccc(CCNc2nc(C)cc(N[C@@H](C)c3ccccc3)n2)cc1 [N^2-[2-(4-Methylphenyl)ethyl]-6-methyl-N^4-[(1S)-1-phenylethyl]pyrimidine-2,4-diamine] |
| 101 to 200 | C[C@H](Nc1cc(NCCc2ccc(Br)cc2)ncn1)c1ccccc1 [N^4-[2-(4-Bromoophenyl)ethyl]-N^6-[(1S)-1-phenylethyl]pyrimidine-4,6-diamine] |
| ≤ 50 | Clc1cccc(CNc2ccnc(NCCOc3ccccc3)n2)c1 [N^4-(3-Chlorophenylmethyl)-N^2-(2-phenoxyethyl)pyrimidine-2,4-diamine] |
| 51 to 100 | CC[C@H](Nc1nc(N)nc(NCCc2ccc(C)cc2)n1)c1ccccc1 [Compound 49, N^2-[2-(4-Methylphenyl)ethyl]-N^4-[(1S)-1-phenylpropyl]-1,3,5-triazine-2,4,6-triamine] |
| ≤ 50 | c1ccc(CNc2ccnc(NCCOc3ccccc3)n2)cc1 [N^2-(2-Phenoxyethyl)-N^4-(phenylmethyl)pyrimidine-2,4-diamine] |
| ≤ 50 | CC[C@H](Nc1ccnc(NCCOc2ccccc2)n1)c1ccccc1 [N^2-(2-Phenoxyethyl)-N^4-[(1S)-1-phenylpropyl]pyrimidine-2,4-diamine] |
| 101 to 200 | C[C@@H](Nc1ccnc(NCCOc2ccccc2)n1)c1ccccc1 [N^2-(2-Phenoxyethyl)-N^4-[(1R)-1-phenylethyl]pyrimidine-2,4-diamine] |
| 101 to 200 | CC(Nc1ccnc(NCCc2cccnc2)n1)c1ccccc1 (stereo not shown) [Compound 1, N^4-(1-Phenylethyl)-N^2-[2-(3-pyridinyl)ethyl]pyrimidine-2,4-diamine] |
| ≤ 50 | Clc1ccc(CNc2ccnc(NCCOc3ccccc3)n2)cc1 [N^4-(4-Chlorophenylmethyl)-N^2-(2-phenoxyethyl)pyrimidine-2,4-diamine] |
| ≤ 50 | CC(Nc1ccnc(NCCc2ccccc2)n1)c1ccc(F)cc1 (stereo not shown) [N^4-[1-(4-Fluorophenyl)ethyl]-N^2-(2-phenylethyl)pyrimidine-2,4-diamine] |
| ≤ 50 | C[C@H](Nc1nc(N)nc(NCCc2cccc(O)c2)n1)c1ccccc1 [Compound 73, N^2-[2-(3-Hydroxyphenyl)ethyl]-N^4-[(1S)-1-phenylethyl]-1,3,5-triazine-2,4,6-triamine] |
| ≤ 50 | Fc1cccc(CNc2ccnc(NCCc3ccccc3)n2)c1 [N^4-(3-Fluorophenylmethyl)-N^2-(2-phenylethyl)pyrimidine-2,4-diamine] |
| 51 to 100 | C[C@H](Nc1nc(N)nc(NCCc2ccccc2F)n1)c1ccccc1 [Compound 48, N^2-[2-(2-Fluorophenyl)ethyl]-N^4-[(1S)-1-phenylethyl]-1,3,5-triazine-2,4,6-triamine] |
| ≤ 50 | Cc1cc(N[C@@H](C)c2ccccc2)nc(NCCc2cccc(Br)c2)n1 [N^2-[2-(3-Bromophenyl)ethyl]-6-methyl-N^4-[(1S)-1-phenylethyl]pyrimidine-2,4-diamine] |
| 101 to 200 | C[C@@H](Nc1ccnc(NCCc2ccccc2)n1)c1ccccc1 [N^2-(2-Phenylethyl)-N^4-[(1R)-1-phenylethyl]pyrimidine-2,4-diamine] |
| ≤ 50 | Fc1ccc(CNc2ccnc(NCCc3ccccc3)n2)cc1Cl [N^4-(3-Chloro-4-fluorophenylmethyl)-N^2-(2-phenylethyl)pyrimidine-2,4-diamine] |
| ≤ 50 | COc1ccccc1CNc1ccnc(NCCc2ccccc2)n1 [N^4-(2-Methoxyphenylmethyl)-N^2-(2-phenylethyl)pyrimidine-2,4-diamine] |

Reference: patent publication US6630469B2, “5-HT7 receptor antagonists” (Bristol-Myers Squibb Company, priority 2000, dated 2003)
